According to patent US9439857B2, “Foam containing benzoyl peroxide” (Foamix Pharmaceuticals Ltd., priority 2007, dated 2016):

Tested on: skin hydration level
Assay: Skin hydration, Corneometer CM 825
Type: in vivo, human
Conditions: BPO-047 variants, 8% glycerin, 2% sodium PCA
Method: Healthy subjects were applied with single dose of formulations as shown in Example 14. Skin hydration is measured using a Corneometer® CM 825 instrument. (Courage+Khazaka, Koln, Germany). The measuring principle of the Corneometer® CM 825 is based on capacitance measurement of dielectric medium. Any change in the dielectric constant due to skin surface hydration alters the capacitance of a measuring capacitor. It is capable of detecting even slight changes in the skin hydration level.
Skin hydration level is assessed at baseline (fifteen minutes after each subject washed the left and right forearms) with the Corneometer® CM 825. The formulations are applied in designated chambers under occlusion for 6 hours which are then removed and the skin cleaned. Hydration is then measured one hour later.
Study protocol: The study was performed in a temperature controlled room (20-24° C.). Subjects washed their arms with water (no soap) and dried their arms with dry paper towel. Formulations were applied using test chambers. The location of each chamber within the stripe was marked once applied (maximum of 3 stripes on each arm). Each stripe contained only one formulation. One stripe served as a control, non treated area. […] Skin hydration level was assessed at baseline T=0 (minimum 15 minutes following rinse), using the Corneometer® CM 825, and tested based on study design. […]

SMILES | hydration effect (Corneometer)
O=C1CCC(C(=O)[O-])N1.[Na+] (centres unmarked) [Sodium PCA, sodium salt of 2-pyrrolidone-5-carboxylic acid] | increases hydration but to a lesser extent
OCC(O)CO [glycerin] | main contributor to the hydration effect
